The results in this text go back to EP2264010A1, “Hetarylamidines” (Bayer CropScience AG, priority 2009, dated 2010).

Data set [1] relates to LOLMU. The experiment in a line: Herbicidal activity, test type PE. Type of data set: in vivo. To be noted: TEST-TYP PE, read-out: herbizide Wirkung LOLMU.
The nature of data set [2]: logP by HPLC on reversed-phase columns (C 18), EEC Directive 79/831 Annex V.A8. To be noted: c18 reversed-phase hplc, reversed-phase (C 18), read-out: log p. Type of data set: physicochemical. From the text: Die Messung der logP Werte erfolgte gemäß EEC Directive 79/831 Annex V.A8 durch HPLC (High Performance Liquid Chromatography) an reversed-phase Säulen (C 18), mit der nachfolgenden Methode: […]

Data set [3] has as its system AMARE. The experiment in a line: Herbicidal activity, test type PE. To be noted: TEST-TYP PE; for pest or weed control at 320 g/ha: Amaranthus retroflexus, read-out: herbizide Wirkung AMARE. Type of data set: in vivo.
Data set [4] relates to VERPE. The experiment in a line: Herbicidal activity, test type PE. Type of data set: in vivo. To be noted: TEST-TYP PE, read-out: herbizide Wirkung VERPE.
For data set [5], the system named is STEME. Nature of the data set: Herbicidal activity, test type PE. Type of data set: in vivo. The note with it: TEST-TYP PE, read-out: herbizide Wirkung STEME.
Data set [6] has as its system VIOTR. Nature of the data set: Herbicidal activity, test type PE. Type of data set: in vivo. To be noted: TEST-TYP PE; for pest or weed control at 320 g/ha: read-out: herbizide Wirkung VIOTR.
The test system of data set [7] is ECHCG. The experiment in a line: Herbicidal activity, test type PE. Type of data set: in vivo. The note with it: TEST-TYP PE, 320 G/HA.
Data set [8] concerns MATIN. Nature of the data set: Herbicidal activity, test type PE. Type of data set: in vivo. To be noted: TEST-TYP PE; for pest or weed control at 320 g/ha: read-out: herbizide Wirkung MATIN.
Data set [9] concerns SETVI. Nature of the data set: Herbicidal activity, test type PE. Type of data set: in vivo. To be noted: TEST-TYP PE, read-out: herbizide Wirkung SETVI.
Data set [10] deals with ALOMY. Nature of the data set: Herbicidal activity, test type PE. The note with it: TEST-TYP PE, 320 G/HA. Type of data set: in vivo.
Data set [11] concerns Tetranychus urticae. The experiment in a line: Tetranychus test, OP-resistant (TETRUR spray treatment). Type of data set: in vivo. To be noted: topical, bean leaf discs (Phaseolus vulgaris), read-out: Wirkung. The text has this: Zur Herstellung einer zweckmäßigen Wirkstoffzubereitung vermischt man 1 Gewichtsteil Wirkstoff mit den angegebenen Mengen Lösungsmittel und Emulgator und verdünnt das Konzentrat mit emulgatorhaltigem Wasser auf die gewünschte Konzentration.
Bohnenblattscheiben (Phaseolus vulgaris), die von allen Stadien der Gemeinen Spinnmilbe (Tetranychus urticae) befallen sind, werden mit einer Wirkstoffzubereitung der gewünschten Konzentration gespritzt.
Nach der gewünschten Zeit wird die Wirkung in % bestimmt. Dabei bedeutet 100 %, dass alle Spinnmilben abgetötet wurden; 0 % bedeutet, dass keine Spinnmilben abgetötet wurden.

Data set [12] relates to AMARE. The experiment in a line: Herbicidal activity, test type PO. Type of data set: in vivo. The note with it: TEST-TYP PO, 80 G/HA.
Data set [13] has as its system VERPE. The experiment in a line: Herbicidal activity, test type PO. Type of data set: in vivo. The note with it: TEST-TYP PO, 80 G/HA.
The test system of data set [14] is VIOTR. The experiment in a line: Herbicidal activity, test type PO. To be noted: TEST-TYP PO, 80 G/HA. Type of data set: in vivo.
The subject of data set [15] is CYPES. Nature of the data set: Herbicidal activity, test type PE. Type of data set: in vivo. To be noted: TEST-TYP PE, 320 G/HA.
In data set [16] the test system is PHBPU. The experiment in a line: Herbicidal activity, test type PO. Type of data set: in vivo. To be noted: TEST-TYP PO, 80 G/HA.

Turning to `CCN(C)C=Nc1ncc(Cl)cc1-c1ccc(F)c(C(F)(F)F)c1` [compound 14], the pest or weed control at 320 g/ha in data set [1] is 100%; in data set [3], 90%; in data set [4] it was 90%; in data set [5], 85%; in data set [6] it was 90%; in data set [8] it was 100%. The pest or weed control at 320 g/ha in data set [9] was determined as 100%. For the same compound, the chromatographic logP in [2] amounted to 2.21. Further, the “herbizide Wirkung ECHCG” value in data set [7] is on record as 80. Besides, the “herbizide Wirkung ALOMY” value in data set [10] is on record as 90.
With `CCN(C)C=Nc1ncc(Cl)cc1-c1ccc(C(F)(F)F)c(Cl)c1` [compound 24], in data set [2], the chromatographic logP stood at 2.88. The mortality at 500 g/ha, 500 g/ha in data set [11] was greater than 80%.
For `CCN(C)C=Nc1ncc(Cl)cc1-c1cccc(C(F)(F)F)c1` [compound 33], the “herbizide Wirkung AMARE” value in data set [12] was found to be 80. Besides, the “herbizide Wirkung VERPE” value in [13] was found to be 80. Besides, the pest or weed control at 320 g/ha is 100% in data set [3]; 100% in [4]; 80% in [5]; 100% in data set [6]; 80% in data set [8]; 80% in [9]. Moreover, the “herbizide Wirkung VIOTR” value in data set [14] was 90. In data set [11], the mortality at 500 g/ha, 500 g/ha was greater than 80%. In addition, the “herbizide Wirkung ALOMY” value in [10] was 80.
`CCN(C=Nc1ncc(Cl)cc1-c1cccc(C(F)(F)F)c1)CC` [compound 36]: the pest or weed control at 320 g/ha in data set [1] came out at 80%; in [4], 90%; in [6] it was 100%; in data set [9] it was 90%. Besides, in data set [15], the “herbizide Wirkung CYPES” value is 100.
In the case of `FC(F)(F)c1cccc(-c2cc(Cl)cnc2N=CN2CCCC2)c1` [compound 38], the “herbizide Wirkung CYPES” value in [15] was 100. Besides, the pest or weed control at 320 g/ha is 80% in data set [3] and 90% in [9].
As to `CCN(C)C=Nc1ncc(-c2ccc(F)c(C(F)(F)F)c2)cc1C` [compound 66], the “herbizide Wirkung PHBPU” value in data set [16] was 80. The pest or weed control at 320 g/ha in data set [1], in [3], in [4], in data set [5], in [6] and in data set [8] was 90% each time. The pest or weed control at 320 g/ha in data set [9] came out at 100%. The “herbizide Wirkung ECHCG” value in [7] is reported as 90. The “herbizide Wirkung VIOTR” value in data set [14] stood at 80. For the same compound, the “herbizide Wirkung ALOMY” value in [10] amounted to 80.
Consider `Cc1cc(-c2ccc(F)c(C(F)(F)F)c2)cnc1N=CN(C)C` [compound 181], for which the “herbizide Wirkung PHBPU” value in [16] is listed as 90. Moreover, the “herbizide Wirkung AMARE” value in data set [12] is listed as 80; in [3] (320 G/HA), 100. In addition, the “herbizide Wirkung VERPE” value in data set [13] is recorded as 80. In addition, the “herbizide Wirkung VIOTR” value in [6] (320 G/HA) is recorded as 90. The “herbizide Wirkung MATIN” value in data set [8] (320 G/HA) amounted to 90.
